The record followed here is patent US9617267B2, “Compounds and methods for kinase modulation, and indications therefor” (Plexxikon Inc., priority 2009, dated 2017).

Series [1] has as its target CYP3A4(BQ) (Homo sapiens (Human), UniProt P08684). Briefly: CYP enzyme inhibition, fluorescent substrate BQ. To be noted: read-out: Cyp IC50 3A4(BQ); CYP3A4, substrate BQ. The protocol: CYP (Cytochrome P450) enzymes are the major drug metabolizing enzymes present in the liver. The inhibition of CYP enzyme activity (IC50) for each of CYP1A2, CYP2C19, CYP2C9, CYP2D6, CYP3A4(BFC) and CYP3A4(BQ) is determined for compounds, where inhibition of metabolism of a known substrate leads to a decrease in the fluorescence of the metabolized product. The fluorescence of the product is monitored as a function of compound concentration.
Compounds are dissolved in dimethyl sulfoxide to a concentration of 100 mM. These are diluted 1 μL into 82 μL of acetonitrile. […] These are then serially diluted 1:1 (160 μL to 160 μL co-factor mix) for a total of 10 points. A 10 μL aliquot of this final mixture is dispensed into 384 well assay plates and incubated for 10 minutes at 37° C. […] Assay plates are incubated at 37° C. […] The signal versus compound concentration is used to determine the IC50. The enzymes and substrates for this assay are obtained from BD Biosciences.

Series [2] concerns the target CYP2C19 (Homo sapiens (Human), UniProt P33261). Put plainly: CYP enzyme inhibition, fluorescent substrate (CEC). To be noted: read-out: Cyp IC50 2C19; CYP2C19, substrate CEC. Put shortly: (§1)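 IC50 values come from plotting product fluorescence against compound concentration; inhibition lowers formation of the fluorescent metabolite. Ten-point twofold dilutions in co-factor mix were held 10 minutes at 37 °C before the enzyme reaction, also run at 37 °C.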

The target of series [3] is CYP3A4(BFC) (Homo sapiens (Human), UniProt P08684). Briefly: CYP enzyme inhibition, fluorescent substrate BFC. To be noted: read-out: Cyp IC50 3A4(BFC); CYP3A4, substrate BFC. The procedure, abridged:
as §1

Series [4] concerns the target CYP2C9 (Homo sapiens (Human), UniProt P11712). Put plainly: CYP enzyme inhibition, fluorescent substrate (MFC). The procedure, abridged:
as §1

The target of series [5] is CYP2D6 (Homo sapiens (Human), UniProt P10635). Briefly: CYP enzyme inhibition, fluorescent substrate (AMMC). Type of series: in vitro ADME. The conditions noted are these: read-out: Cyp IC50 2D6. The procedure, abridged:
(§2)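 Ten-point 1:1 compound dilutions in NADPH-regenerating cofactor mix, pre-incubated 10 min at 37 °C before enzyme/substrate addition: CYP1A2 0.5 pmol with 5 μM CEC, 15 min, 409 ex/460 em; CYP2D6 1.5 pmol with 1.5 μM AMMC, 30 min, 409 ex/530 em. IC50 from fluorescent product vs concentration.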

For series [6], the target named is CYP1A2 (Homo sapiens (Human), UniProt P05177). Briefly: CYP enzyme inhibition, fluorescent substrate (CEC). To be noted: human, 15 min. Put shortly:
as §2

[7] abbreviates: read-out: Cyp IC50 2C9, CYP2C9, substrate MFC.

Where two headings read alike, the source gives them in different places.

For orientation: IC50 means the point on the concentration scale where inhibition reaches its midpoint.

Chain of CYP3A4(BQ) (P08684 whole entry): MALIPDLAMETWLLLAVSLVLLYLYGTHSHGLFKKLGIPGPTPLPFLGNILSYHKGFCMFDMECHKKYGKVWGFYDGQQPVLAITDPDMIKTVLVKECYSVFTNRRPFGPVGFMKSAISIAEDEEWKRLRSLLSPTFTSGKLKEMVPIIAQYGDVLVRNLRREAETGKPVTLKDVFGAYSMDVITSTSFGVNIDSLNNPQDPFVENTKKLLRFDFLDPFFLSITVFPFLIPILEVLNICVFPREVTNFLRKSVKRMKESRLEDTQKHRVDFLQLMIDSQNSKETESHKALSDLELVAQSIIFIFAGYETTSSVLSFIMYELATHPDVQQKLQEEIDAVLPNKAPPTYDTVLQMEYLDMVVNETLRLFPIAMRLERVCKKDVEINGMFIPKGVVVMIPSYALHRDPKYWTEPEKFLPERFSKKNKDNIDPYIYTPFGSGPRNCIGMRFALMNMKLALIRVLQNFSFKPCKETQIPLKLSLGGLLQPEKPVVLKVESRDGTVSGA
Chain of CYP3A4(BFC) (P08684 whole entry): as above
Chain of CYP2C9 (P11712 whole entry): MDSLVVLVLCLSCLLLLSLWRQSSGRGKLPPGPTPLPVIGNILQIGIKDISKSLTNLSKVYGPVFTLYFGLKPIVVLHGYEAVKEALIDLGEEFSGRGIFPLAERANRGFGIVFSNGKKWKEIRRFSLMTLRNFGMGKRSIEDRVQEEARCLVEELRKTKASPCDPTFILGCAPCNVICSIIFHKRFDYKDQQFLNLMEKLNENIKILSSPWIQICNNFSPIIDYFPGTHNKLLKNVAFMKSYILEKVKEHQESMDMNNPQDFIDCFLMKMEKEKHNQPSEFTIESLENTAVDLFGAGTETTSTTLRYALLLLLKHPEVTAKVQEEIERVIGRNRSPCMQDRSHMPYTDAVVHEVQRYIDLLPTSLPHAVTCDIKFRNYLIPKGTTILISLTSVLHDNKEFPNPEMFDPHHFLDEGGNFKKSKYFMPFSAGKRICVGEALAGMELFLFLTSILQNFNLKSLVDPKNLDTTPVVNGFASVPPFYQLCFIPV
Chain of CYP2D6 (P10635 whole entry): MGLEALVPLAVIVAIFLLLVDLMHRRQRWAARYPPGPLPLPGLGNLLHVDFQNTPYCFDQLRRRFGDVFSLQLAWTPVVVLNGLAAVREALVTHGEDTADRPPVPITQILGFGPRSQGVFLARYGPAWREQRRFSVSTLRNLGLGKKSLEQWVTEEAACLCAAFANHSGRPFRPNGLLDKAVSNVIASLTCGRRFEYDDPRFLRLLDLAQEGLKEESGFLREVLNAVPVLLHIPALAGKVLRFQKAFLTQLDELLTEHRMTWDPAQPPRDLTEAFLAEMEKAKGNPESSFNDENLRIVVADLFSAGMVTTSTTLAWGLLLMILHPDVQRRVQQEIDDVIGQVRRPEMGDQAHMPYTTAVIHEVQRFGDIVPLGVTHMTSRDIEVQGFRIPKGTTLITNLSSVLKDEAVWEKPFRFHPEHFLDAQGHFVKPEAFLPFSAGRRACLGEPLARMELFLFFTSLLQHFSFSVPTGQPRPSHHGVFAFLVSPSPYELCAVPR
Chain of CYP1A2 (P05177 whole entry): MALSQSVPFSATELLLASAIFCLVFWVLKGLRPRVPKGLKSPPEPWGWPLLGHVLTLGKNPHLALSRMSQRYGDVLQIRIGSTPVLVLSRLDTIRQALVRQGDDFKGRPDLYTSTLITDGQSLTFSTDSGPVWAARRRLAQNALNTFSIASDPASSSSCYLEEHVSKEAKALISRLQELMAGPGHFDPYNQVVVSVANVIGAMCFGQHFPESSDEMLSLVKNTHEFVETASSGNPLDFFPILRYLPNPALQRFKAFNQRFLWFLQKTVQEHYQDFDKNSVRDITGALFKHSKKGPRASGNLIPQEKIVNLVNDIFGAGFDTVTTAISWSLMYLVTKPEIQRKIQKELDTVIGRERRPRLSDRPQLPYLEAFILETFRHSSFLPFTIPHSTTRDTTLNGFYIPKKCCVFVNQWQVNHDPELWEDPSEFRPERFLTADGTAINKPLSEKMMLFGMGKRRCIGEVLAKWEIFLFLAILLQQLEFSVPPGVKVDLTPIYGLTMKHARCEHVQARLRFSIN
Chain of CYP2C19 (P33261 whole entry): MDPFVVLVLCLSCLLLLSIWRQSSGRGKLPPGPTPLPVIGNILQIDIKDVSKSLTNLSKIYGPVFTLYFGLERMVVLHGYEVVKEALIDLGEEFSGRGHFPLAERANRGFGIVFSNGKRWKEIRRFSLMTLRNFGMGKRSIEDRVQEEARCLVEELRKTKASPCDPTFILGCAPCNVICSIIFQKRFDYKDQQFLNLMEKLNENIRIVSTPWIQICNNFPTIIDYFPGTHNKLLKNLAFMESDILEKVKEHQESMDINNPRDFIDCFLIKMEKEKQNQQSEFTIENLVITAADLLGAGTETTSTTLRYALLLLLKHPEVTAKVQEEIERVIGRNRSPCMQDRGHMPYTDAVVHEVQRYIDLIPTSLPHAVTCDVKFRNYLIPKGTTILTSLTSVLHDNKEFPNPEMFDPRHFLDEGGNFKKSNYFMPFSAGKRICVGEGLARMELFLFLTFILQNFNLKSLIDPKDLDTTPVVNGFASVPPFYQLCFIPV

As to `COc1cccc(Nc2ncnc3[nH]cc(C(=O)c4c(F)ccc(NS(=O)(=O)c5cc(F)ccc5F)c4F)c23)c1` [P-1139, N-{2,4-Difluoro-3-[4-(3-methoxy-phenylamino)-7H-pyrrolo[2,3-d]pyrimidine-5-carbonyl]-phenyl}-2,5-difluoro-benzenesulfonamide], the IC50 in series [1], in series [2], in series [3], in series [4] (setting [7]), in series [5] and in series [6] was over 10 µM each time.

As to `CCCS(=O)(=O)Nc1ccc(F)c(C(=O)c2c[nH]c3ncnc(Nc4ccc(OC)nc4)c23)c1F` [P-1090, Propane-1-sulfonic acid {2,4-difluoro-3-[4-(6-methoxy-pyridin-3-ylamino)-7H-pyrrolo[2,3-d]pyrimidine-5-carbonyl]-phenyl}-amide], the IC50 in series [1], in series [2], in series [3], in series [4] (setting [7]), in series [5] and in series [6] was over 10 µM throughout.

Take `CC(C)Nc1ncnc2[nH]cc(C(=O)c3c(F)ccc(NS(=O)(=O)c4cc(F)ccc4F)c3F)c12` [P-1111, N-[2,4-Difluoro-3-(4-isopropylamino-7H-pyrrolo[2,3-d]pyrimidine-5-carbonyl)-phenyl]-2,5-difluoro-benzenesulfonamide]: the IC50 in series [1] was over 10 µM; in series [2], over 10 µM; in series [3], over 10 µM; in series [4], 5 to 10 µM; in series [5], over 10 µM; in series [6], over 10 µM.

Take `O=C(c1c(F)ccc(NS(=O)(=O)c2cc(F)ccc2F)c1F)c1c[nH]c2ncnc(NCC3CC3)c12` [P-1137, N-{3-[4-(Cyclopropylmethyl-amino)-7H-pyrrolo[2,3-d]pyrimidine-5-carbonyl]-2,4-difluoro-phenyl}-2,5-difluoro-benzenesulfonamide]: the IC50 in series [1], in series [2], in series [3], in series [4] (setting [7]), in series [5] and in series [6] was over 10 µM each time.

Turning to `CCn1cc(Nc2ncnc3[nH]cc(C(=O)c4c(F)ccc(NS(=O)(=O)c5cc(F)ccc5F)c4F)c23)cn1` [P-1142, N-{3-[4-(1-Ethyl-1H-pyrazol-4-ylamino)-7H-pyrrolo[2,3-d]pyrimidine-5-carbonyl]-2,4-difluoro-phenyl}-2,5-difluoro-benzenesulfonamide], the IC50 in series [1], in series [2], in series [3], in series [4] (setting [7]), in series [5] and in series [6] was over 10 µM each time.

Turning to `CCn1cc(Nc2ncnc3[nH]cc(C(=O)c4c(F)ccc(NS(=O)(=O)c5ccccc5F)c4F)c23)cn1` [P-1153, N-{3-[4-(1-Ethyl-1H-pyrazol-4-ylamino)-7H-pyrrolo[2,3-d]pyrimidine-5-carbonyl]-2,4-difluoro-phenyl}-2-fluoro-benzenesulfonamide], the IC50 in series [1], in series [2], in series [3], in series [4] (setting [7]), in series [5] and in series [6] was over 10 µM throughout.

Consider `COCCNc1ncnc2[nH]cc(C(=O)c3c(F)ccc(NS(=O)(=O)c4ccccc4F)c3F)c12` [P-1150, N-{2,4-Difluoro-3-[4-(2-methoxy-ethylamino)-7H-pyrrolo[2,3-d]pyrimidine-5-carbonyl]-phenyl}-2-fluoro-benzenesulfonamide], for which the IC50 in series [1], in series [2], in series [3], in series [4] (setting [7]), in series [5] and in series [6] was over 10 µM each time.
